Experimental data reported in patent publication US20110039721A1, “METHOD FOR PREDICTION ABOUT CARCINOGENICITY OF SUBSTANCE IN RODENT” (Chemicals Evaluation and Research Institute, priority 2007, published 2011).

Tests used:
[1] = test system: mRNA expressed from the genes (A) to (D) in rat liver; experiment: Behavior of genes (mRNA expression level, oligo-DNA microarray) in rat liver after 28-day oral administration; assay type: in vivo
Method in brief: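 Oral gavage, once daily × 28 days; male F344 SPF rats, 5 wk, n=4/group; vehicle controls given equal solvent volume. Liver excised day 28, total RNA purified. Significance: ≥1.5× or ≤1/1.5 of vehicle, direction concordant with other carcinogens.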

rodent = details: in vivo; cited from earlier work
liver = details: in vivo; cited from earlier work
[2] = gene group (A), Unigene No. Rn.167075
[3] = gene group (C), Unigene No. Rn.120914
[4] = (A), Unigene Rn.144554, defined direction +, rat liver, oral once daily 28 days
[5] = (A), Unigene Rn.167075, defined direction +, rat liver, oral once daily 28 days, significant = 1.5 times or more or 1/1.5 or less of control
[6] = (A), Unigene Rn.167075, defined direction −, rat liver, oral once daily 28 days
[7] = (A), Unigene Rn.5834, defined direction +, rat liver, oral once daily 28 days
[8] = (A), Unigene Rn.9836, defined direction +, rat liver, oral once daily 28 days
[9] = (B), Unigene Rn.1430, defined direction −, rat liver, oral once daily 28 days
[10] = (B), Unigene Rn.19329, defined direction +, rat liver, oral once daily 28 days
[11] = (B), Unigene Rn.21240, defined direction +, rat liver, oral once daily 28 days
[12] = (C), Unigene Rn.106184, defined direction +, rat liver, oral once daily 28 days
[13] = (C), Unigene Rn.108075, defined direction −, rat liver, oral once daily 28 days
[14] = (C), Unigene Rn.11766, defined direction +, rat liver, oral once daily 28 days
[15] = (C), Unigene Rn.118529, defined direction −, rat liver, oral once daily 28 days
[16] = (C), Unigene Rn.119024, defined direction −, rat liver, oral once daily 28 days
[17] = (C), Unigene Rn.120914, defined direction +, rat liver, oral once daily 28 days
[18] = (C), Unigene Rn.123063, defined direction −, rat liver, oral once daily 28 days
[19] = (C), Unigene Rn.143213, defined direction −, rat liver, oral once daily 28 days
[20] = (C), Unigene Rn.144946, defined direction −, rat liver, oral once daily 28 days
[21] = (C), Unigene Rn.14744, defined direction −, rat liver, oral once daily 28 days
[22] = (C), Unigene Rn.1647, defined direction −, rat liver, oral once daily 28 days
[23] = (C), Unigene Rn.164817, defined direction +, rat liver, oral once daily 28 days
[24] = (C), Unigene Rn.167685, defined direction −, rat liver, oral once daily 28 days
[25] = (C), Unigene Rn.185941, defined direction −, rat liver, oral once daily 28 days
[26] = (C), Unigene Rn.18728, defined direction −, rat liver, oral once daily 28 days
[27] = (C), Unigene Rn.201760, defined direction +, rat liver, oral once daily 28 days
[28] = (C), Unigene Rn.23969, defined direction +, rat liver, oral once daily 28 days
[29] = (C), Unigene Rn.24561, defined direction −, rat liver, oral once daily 28 days
[30] = (C), Unigene Rn.43232, defined direction −, rat liver, oral once daily 28 days
[31] = (C), Unigene Rn.4620, defined direction +, rat liver, oral once daily 28 days
[32] = (C), Unigene Rn.9757, defined direction +, rat liver, oral once daily 28 days
[33] = (C), Unigene Rn.9779, defined direction +, rat liver, oral once daily 28 days
[34] = (C), Unigene Rn.9862, defined direction −, rat liver, oral once daily 28 days
[35] = (D), Unigene Rn.9939, defined direction −, rat liver, oral once daily 28 days

CCC[N+](=O)[O-] [TS036, 1-Nitropropane]
Behavior of gene caused by administration of chemical substance, Gene No. 4846 ([1]; gene group (A), Unigene No. Rn.144554): −
Behavior of gene caused by administration of chemical substance, Gene No. 2026 [1, 2]: −
Behavior of gene caused by administration of chemical substance, Gene No. 4218 [1, 2]: −
Behavior of gene caused by administration of chemical substance, Gene No. 6182 ([1]; gene group (A), Unigene No. Rn.5834): −
Behavior of gene caused by administration of chemical substance, Gene No. 5600 ([1]; gene group (A), Unigene No. Rn.9836): −
Behavior of gene caused by administration of chemical substance, Gene No. 1494 ([1]; gene group (B), Unigene No. Rn.1430): −
Behavior of gene caused by administration of chemical substance, Gene No. 2045 ([1]; gene group (B), Unigene No. Rn.19329): −
Behavior of gene caused by administration of chemical substance, Gene No. 2203 ([1]; gene group (B), Unigene No. Rn.21240): −
Behavior of gene caused by administration of chemical substance, Gene No. 533 ([1]; gene group (C), Unigene No. Rn.106184): −
Behavior of gene caused by administration of chemical substance, Gene No. 725 ([1]; gene group (C), Unigene No. Rn.108075): +
Behavior of gene caused by administration of chemical substance, Gene No. 1163 ([1]; gene group (C), Unigene No. Rn.11766): −
Behavior of gene caused by administration of chemical substance, Gene No. 4973 ([1]; gene group (C), Unigene No. Rn.118529): +
Behavior of gene caused by administration of chemical substance, Gene No. 4095 ([1]; gene group (C), Unigene No. Rn.119024): +
Behavior of gene caused by administration of chemical substance, Gene No. 1334 [1, 3]: −
Behavior of gene caused by administration of chemical substance, Gene No. 6620 [1, 3]: −
Behavior of gene caused by administration of chemical substance, Gene No. 6303 ([1]; gene group (C), Unigene No. Rn.123063): −
Behavior of gene caused by administration of chemical substance, Gene No. 5878 ([1]; gene group (C), Unigene No. Rn.143213): +
Behavior of gene caused by administration of chemical substance, Gene No. 1131 ([1]; gene group (C), Unigene No. Rn.144946): +
Behavior of gene caused by administration of chemical substance, Gene No. 1562 ([1]; gene group (C), Unigene No. Rn.14744): +
Behavior of gene caused by administration of chemical substance, Gene No. 1741 ([1]; gene group (C), Unigene No. Rn.1647): +
Behavior of gene caused by administration of chemical substance, Gene No. 893 ([1]; gene group (C), Unigene No. Rn.164817): +
Behavior of gene caused by administration of chemical substance, Gene No. 6026 ([1]; gene group (C), Unigene No. Rn.167685): −
Behavior of gene caused by administration of chemical substance, Gene No. 154 ([1]; gene group (C), Unigene No. Rn.185941): +
Behavior of gene caused by administration of chemical substance, Gene No. 1993 ([1]; gene group (C), Unigene No. Rn.18728): +
Behavior of gene caused by administration of chemical substance, Gene No. 813 ([1]; gene group (C), Unigene No. Rn.201760): −
Behavior of gene caused by administration of chemical substance, Gene No. 2494 ([1]; gene group (C), Unigene No. Rn.23969): −
Behavior of gene caused by administration of chemical substance, Gene No. 2546 ([1]; gene group (C), Unigene No. Rn.24561): +
Behavior of gene caused by administration of chemical substance, Gene No. 3776 ([1]; gene group (C), Unigene No. Rn.43232): +
Behavior of gene caused by administration of chemical substance, Gene No. 3929 ([1]; gene group (C), Unigene No. Rn.4620): +
Behavior of gene caused by administration of chemical substance, Gene No. 1119 ([1]; gene group (C), Unigene No. Rn.9757): +
Behavior of gene caused by administration of chemical substance, Gene No. 6742 ([1]; gene group (C), Unigene No. Rn.9779): −
Behavior of gene caused by administration of chemical substance, Gene No. 5634 ([1]; gene group (C), Unigene No. Rn.9862): −
Behavior of gene caused by administration of chemical substance, Gene No. 5726 ([1]; gene group (D), Unigene No. Rn.9939): −
Carcinogenicity (rodent): C−
Liver carcinogenicity (liver): Cr−

CN(C)N=O [TS041, N-Nitrosodimethylamine]
Behavior of gene caused by administration of chemical substance, Gene No. 4846 [1, 4]: +
Behavior of gene caused by administration of chemical substance, Gene No. 4218 [1, 5]: +
Behavior of gene caused by administration of chemical substance, Gene No. 2026 [1, 6]: −
Behavior of gene caused by administration of chemical substance, Gene No. 6182 [1, 7]: +
Behavior of gene caused by administration of chemical substance, Gene No. 5600 [1, 8]: +
Behavior of gene caused by administration of chemical substance, Gene No. 1494 [1, 9]: −
Behavior of gene caused by administration of chemical substance, Gene No. 2045 [1, 10]: −
Behavior of gene caused by administration of chemical substance, Gene No. 2203 [1, 11]: −
Behavior of gene caused by administration of chemical substance, Gene No. 533 [1, 12]: −
Behavior of gene caused by administration of chemical substance, Gene No. 725 [1, 13]: −
Behavior of gene caused by administration of chemical substance, Gene No. 1163 [1, 14]: −
Behavior of gene caused by administration of chemical substance, Gene No. 4973 [1, 15]: −
Behavior of gene caused by administration of chemical substance, Gene No. 4095 [1, 16]: −
Behavior of gene caused by administration of chemical substance, Gene No. 1334 [1, 17]: −
Behavior of gene caused by administration of chemical substance, Gene No. 6620 [1, 17]: −
Behavior of gene caused by administration of chemical substance, Gene No. 6303 [1, 18]: −
Behavior of gene caused by administration of chemical substance, Gene No. 5878 [1, 19]: −
Behavior of gene caused by administration of chemical substance, Gene No. 1131 [1, 20]: −
Behavior of gene caused by administration of chemical substance, Gene No. 1562 [1, 21]: −
Behavior of gene caused by administration of chemical substance, Gene No. 1741 [1, 22]: −
Behavior of gene caused by administration of chemical substance, Gene No. 893 [1, 23]: −
Behavior of gene caused by administration of chemical substance, Gene No. 6026 [1, 24]: −
Behavior of gene caused by administration of chemical substance, Gene No. 154 [1, 25]: −
Behavior of gene caused by administration of chemical substance, Gene No. 1993 [1, 26]: −
Behavior of gene caused by administration of chemical substance, Gene No. 813 [1, 27]: −
Behavior of gene caused by administration of chemical substance, Gene No. 2494 [1, 28]: −
Behavior of gene caused by administration of chemical substance, Gene No. 2546 [1, 29]: −
Behavior of gene caused by administration of chemical substance, Gene No. 3776 [1, 30]: −
Behavior of gene caused by administration of chemical substance, Gene No. 3929 [1, 31]: −
Behavior of gene caused by administration of chemical substance, Gene No. 1119 [1, 32]: −
Behavior of gene caused by administration of chemical substance, Gene No. 6742 [1, 33]: +
Behavior of gene caused by administration of chemical substance, Gene No. 5634 [1, 34]: −
Behavior of gene caused by administration of chemical substance, Gene No. 5726 [1, 35]: −
Carcinogenicity (rodent): C+
Liver carcinogenicity (liver): Cr+

O=NN1CCCCC1 [TS042, N-Nitrosopiperidine]
Behavior of gene caused by administration of chemical substance, Gene No. 4846 [1, 4]: +
Behavior of gene caused by administration of chemical substance, Gene No. 4218 [1, 5]: +
Behavior of gene caused by administration of chemical substance, Gene No. 2026 [1, 6]: +
Behavior of gene caused by administration of chemical substance, Gene No. 6182 [1, 7]: +
Behavior of gene caused by administration of chemical substance, Gene No. 5600 [1, 8]: +
Behavior of gene caused by administration of chemical substance, Gene No. 1494 [1, 9]: +
Behavior of gene caused by administration of chemical substance, Gene No. 2045 [1, 10]: −
Behavior of gene caused by administration of chemical substance, Gene No. 2203 [1, 11]: −
Behavior of gene caused by administration of chemical substance, Gene No. 533 [1, 12]: +
Behavior of gene caused by administration of chemical substance, Gene No. 725 [1, 13]: −
Behavior of gene caused by administration of chemical substance, Gene No. 1163 [1, 14]: −
Behavior of gene caused by administration of chemical substance, Gene No. 4973 [1, 15]: −
Behavior of gene caused by administration of chemical substance, Gene No. 4095 [1, 16]: −
Behavior of gene caused by administration of chemical substance, Gene No. 1334 [1, 17]: −
Behavior of gene caused by administration of chemical substance, Gene No. 6620 [1, 17]: −
Behavior of gene caused by administration of chemical substance, Gene No. 6303 [1, 18]: +
Behavior of gene caused by administration of chemical substance, Gene No. 5878 [1, 19]: −
Behavior of gene caused by administration of chemical substance, Gene No. 1131 [1, 20]: +
Behavior of gene caused by administration of chemical substance, Gene No. 1562 [1, 21]: +
Behavior of gene caused by administration of chemical substance, Gene No. 1741 [1, 22]: −
Behavior of gene caused by administration of chemical substance, Gene No. 893 [1, 23]: −
Behavior of gene caused by administration of chemical substance, Gene No. 6026 [1, 24]: −
Behavior of gene caused by administration of chemical substance, Gene No. 154 [1, 25]: −
Behavior of gene caused by administration of chemical substance, Gene No. 1993 [1, 26]: +
Behavior of gene caused by administration of chemical substance, Gene No. 813 [1, 27]: +
Behavior of gene caused by administration of chemical substance, Gene No. 2494 [1, 28]: −
Behavior of gene caused by administration of chemical substance, Gene No. 2546 [1, 29]: −
Behavior of gene caused by administration of chemical substance, Gene No. 3776 [1, 30]: −
Behavior of gene caused by administration of chemical substance, Gene No. 3929 [1, 31]: −
Behavior of gene caused by administration of chemical substance, Gene No. 1119 [1, 32]: −
Behavior of gene caused by administration of chemical substance, Gene No. 6742 [1, 33]: −
Behavior of gene caused by administration of chemical substance, Gene No. 5634 [1, 34]: −
Behavior of gene caused by administration of chemical substance, Gene No. 5726 [1, 35]: +
Carcinogenicity (rodent): C+
Liver carcinogenicity (liver): Cr+
